{"source": "ChEMBL document CHEMBL1201862", "about": "“PubChem BioAssay data set” (2004)", "experiment_in_all_cases": "DTP human tumour cell line panel, 48 h", "key": {"BT-549": {"tested_on": "BT-549"}, "Hs-578T": {"tested_on": "Hs-578T"}, "SNB-78": {"tested_on": "SNB-78"}, "DLD-1": {"tested_on": "DLD-1"}, "KM-20L2": {"tested_on": "KM-20L2"}, "M19-MEL": {"tested_on": "M19-MEL"}, "LXFL 529": {"tested_on": "LXFL 529"}}, "note": "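Grown in 96-well plates, cells were treated for 48 hours with each compound at five concentrations. Insufficient inhibition: endpoint recorded as highest concentration tested. At the GI50, growth is halved.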 Active and inactive are the calls of the source. Cut-off read from the data, not from the text of the source: active = GI50 up to about 1.1 µM and inactive = higher."}
{"smiles": "FC(F)(F)c1cccc(-c2nc3nc(Cl)c(Cl)nc3[nH]2)c1", "values": [{"measurement": "GI50", "setting": "BT-549", "value": "3.18 µM (inactive)"}, {"measurement": "GI50", "setting": "Hs-578T", "value": "2.57 µM (inactive)"}]}
{"smiles": "C(=N/Nc1ccccn1)/c1cccnc1", "values": [{"measurement": "GI50", "setting": "BT-549", "value": "> 100 µM (inactive)"}, {"measurement": "GI50", "setting": "Hs-578T", "value": "> 100 µM (inactive)"}]}
{"smiles": "Cn1ncc2c(NCc3ccccc3)ncnc21", "values": [{"measurement": "GI50", "setting": "BT-549", "value": "> 100 µM (inactive)"}]}
{"smiles": "CCCCc1ccc(Nc2nc(Cl)c3c(ncn3COCCOC(C)=O)n2)cc1", "values": [{"measurement": "GI50", "setting": "BT-549", "value": "15 µM (inactive)"}, {"measurement": "GI50", "setting": "Hs-578T", "value": "21.5 µM (inactive)"}]}
{"smiles": "N#C[C@H](C(=O)c1ccccc1F)c1nc2ccccc2[nH]1", "values": [{"measurement": "GI50", "setting": "BT-549", "value": "> 100 µM (inactive)"}, {"measurement": "GI50", "setting": "Hs-578T", "value": "85.5 µM (inactive)"}]}
{"smiles": "Cc1cn(C2CC(n3cc(Cn4cc(F)c(=O)[nH]c4=O)nn3)C(CO)O2)c(=O)[nH]c1=O", "note": "(stereo unspecified)", "values": [{"measurement": "GI50", "setting": "BT-549", "value": "> 100 µM (inactive)"}, {"measurement": "GI50", "setting": "Hs-578T", "value": "> 100 µM (inactive)"}]}
{"smiles": "CCOC(=O)c1nc2ccccc2nc1Nc1ccc(OC)cc1", "values": [{"measurement": "GI50", "setting": "BT-549", "value": "24 µM (inactive)"}, {"measurement": "GI50", "setting": "Hs-578T", "value": "41.2 µM (inactive)"}]}
{"smiles": "CS(=O)(=O)OCCN1CCN(C(=O)c2cccc3c(Nc4ccc(S(=O)(=O)N=C(N)N)cc4)c4ccccc4nc23)CC1", "values": [{"measurement": "GI50", "setting": "SNB-78", "value": "> 100 µM (inactive)"}, {"measurement": "GI50", "setting": "DLD-1", "value": "> 100 µM (inactive)"}, {"measurement": "GI50", "setting": "KM-20L2", "value": "> 100 µM (inactive)"}, {"measurement": "GI50", "setting": "M19-MEL", "value": "> 100 µM (inactive)"}]}
{"smiles": "CCn1c(-c2cc(OC)cc(OC)c2)nc2c1C(=O)c1ccccc1C2=O", "values": [{"measurement": "GI50", "setting": "BT-549", "value": "> 100 µM (inactive)"}, {"measurement": "GI50", "setting": "Hs-578T", "value": "36.5 µM (inactive)"}]}
{"smiles": "c1ccc2c(c1)CCc1c-2n(CCN2CCCCC2)c2ccccc12", "values": [{"measurement": "GI50", "setting": "BT-549", "value": "17.9 µM (inactive)"}, {"measurement": "GI50", "setting": "Hs-578T", "value": "18.2 µM (inactive)"}]}
{"smiles": "COc1cc(C=O)cc(/C=N/N=C/c2ccccc2O)c1O", "values": [{"measurement": "GI50", "setting": "BT-549", "value": "10.2 µM (inactive)"}, {"measurement": "GI50", "setting": "Hs-578T", "value": "2.92 µM (inactive)"}]}
{"smiles": "CC(=O)N1c2ccccc2C23CCN4CC5=CCOC(O)C(C5CC42)C13", "note": "(stereo unspecified)", "values": [{"measurement": "GI50", "setting": "BT-549", "value": "> 100 µM (inactive)"}, {"measurement": "GI50", "setting": "Hs-578T", "value": "> 100 µM (inactive)"}]}
{"smiles": "CCC[C@@H](O)C[C@@H]1CCC[C@H](C[C@@H](O)CC)N1C", "values": [{"measurement": "GI50", "setting": "BT-549", "value": "76.4 µM (inactive)"}]}
{"smiles": "O=C(Cn1c(-c2ccccc2)cc2ccccc21)N1CCCC1", "values": [{"measurement": "GI50", "setting": "BT-549", "value": "> 100 µM (inactive)"}, {"measurement": "GI50", "setting": "Hs-578T", "value": "> 100 µM (inactive)"}]}
{"smiles": "O=C(NC12CC3CC(CC(C3)C1)C2)C(=O)c1c[nH]c2ccc(Cl)cc12", "values": [{"measurement": "GI50", "setting": "SNB-78", "value": "83.2 µM (inactive)"}, {"measurement": "GI50", "setting": "KM-20L2", "value": "5.73 µM (inactive)"}, {"measurement": "GI50", "setting": "M19-MEL", "value": "79.1 µM (inactive)"}, {"measurement": "GI50", "setting": "LXFL 529", "value": "21.8 µM (inactive)"}]}
{"smiles": "C/C(CC(=O)Nc1cccc([N+](=O)[O-])c1)=N/NC(N)=S", "values": [{"measurement": "GI50", "setting": "DLD-1", "value": "> 100 µM (inactive)"}, {"measurement": "GI50", "setting": "KM-20L2", "value": "> 100 µM (inactive)"}, {"measurement": "GI50", "setting": "M19-MEL", "value": "> 100 µM (inactive)"}, {"measurement": "GI50", "setting": "LXFL 529", "value": "> 100 µM (inactive)"}]}
{"smiles": "Cc1c(C(=O)C(=O)c2ccccc2)c(C)c(C(=O)C(=O)c2ccccc2)c(C)c1C(=O)C(=O)c1ccccc1", "values": [{"measurement": "GI50", "setting": "Hs-578T", "value": "> 100 µM (inactive)"}]}
{"smiles": "CCOC(=O)C(C(=S)SC)c1nn2c(=O)cc(C)nc2s1", "note": "(stereo unspecified)", "values": [{"measurement": "GI50", "setting": "BT-549", "value": "16.9 µM (inactive)"}, {"measurement": "GI50", "setting": "Hs-578T", "value": "22.1 µM (inactive)"}]}
{"smiles": "C(=N\\OCCc1ccccc1)/c1cccnc1", "values": [{"measurement": "GI50", "setting": "BT-549", "value": "> 100 µM (inactive)"}, {"measurement": "GI50", "setting": "Hs-578T", "value": "> 100 µM (inactive)"}]}
{"smiles": "O=C1/C(=C/c2ccc(Br)s2)NC(=S)N1c1ccccc1", "values": [{"measurement": "GI50", "setting": "BT-549", "value": "82.6 µM (inactive)"}, {"measurement": "GI50", "setting": "Hs-578T", "value": "38.6 µM (inactive)"}]}
{"smiles": "COc1ccc(C(OCC2OC3(COC(c4ccccc4)(c4ccc(OC)cc4)c4ccc(OC)cc4)C(Oc4nc(=O)ccn43)C2O)(c2ccccc2)c2ccc(OC)cc2)cc1", "note": "(stereo unspecified)", "values": [{"measurement": "GI50", "setting": "BT-549", "value": "> 100 µM (inactive)"}, {"measurement": "GI50", "setting": "Hs-578T", "value": "10.8 µM (inactive)"}]}
{"smiles": "COC(=O)c1c(C)cc(OC)c(C/C=C(\\C)CCCc2coc(C=C(C)C)c2)c1OC", "values": [{"measurement": "GI50", "setting": "BT-549", "value": "> 100 µM (inactive)"}, {"measurement": "GI50", "setting": "Hs-578T", "value": "18.2 µM (inactive)"}]}
{"smiles": "N#Cc1c(CC(=O)O)cc(=O)n2c1[nH]c1ccccc12", "values": [{"measurement": "GI50", "setting": "SNB-78", "value": "> 100 µM (inactive)"}, {"measurement": "GI50", "setting": "DLD-1", "value": "> 100 µM (inactive)"}, {"measurement": "GI50", "setting": "KM-20L2", "value": "> 100 µM (inactive)"}, {"measurement": "GI50", "setting": "M19-MEL", "value": "> 100 µM (inactive)"}]}
